Reference: patent US10597388B2, “Pyridazinone herbicides” (FMC CORPORATION, priority 2014, dated 2020)

How the values were obtained:
Format in all cases: in vivo
[1] = test system: Italian ryegrass (Lolium multiflorum); assay: Test E greenhouse herbicide test, pre- and postemergence
How it was run: (§1)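 Compounds in a non-phytotoxic solvent mixture with surfactant were applied preemergence to seeds in silt loam soil and postemergence to 2-18 cm plants (1- to 4-leaf stage) in peat-based medium. After 14 to 21 d in a greenhouse, injury was rated visually against untreated controls on a 0 (no effect) to 100 (complete control) scale.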

[2] = test system: barnyardgrass (Echinochloa crus-galli); assay: as above
How it was run: as §1

[3] = test system: beggarticks (hairy beggarticks, Bidens pilosa); assay: as above
How it was run: as §1

[4] = test system: crabgrass, Brazilian (Brazilian crabgrass, Digitaria horizontalis); assay: as above
How it was run: as §1

[5] = test system: crabgrass, large (large crabgrass, Digitaria sanguinalis); assay: as above; details: Preemergence
How it was run: as §1

[6] = test system: dayflower (Virginia (VA) dayflower, Commelina virginica); assay: as above
How it was run: as §1

[7] = test system: goosegrass (Eleusine indica); assay: as above; details: Preemergence
How it was run: as §1

[8] = test system: horseweed (Conyza canadensis); assay: as above; details: Postemergence
How it was run: as §1

[9] = test system: kochia (Kochia scoparia); assay: as above
How it was run: as §1

[10] = test system: pigweed, palmer (palmer pigweed, Amaranthus palmeri); assay: as above
How it was run: as §1

[11] = test system: ragweed (common ragweed, Ambrosia elatior); assay: as above
How it was run: as §1

[12] = test system: sandbur (southem sandbur, Cenchrus echinatus); assay: as above
How it was run: as §1

[13] = test system: soybean (Glycine max); assay: as above
How it was run: as §1

[14] = test system: waterhemp_RES1 (ALS & Triazine resistant common waterhemp, Amaranthus rudis); assay: Test E greenhouse herbicide test, postemergence
How it was run: (§2)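 Values are visual ratings from 0 (no effect) to 100 (complete control), scored relative to untreated controls 14 to 21 d after treatment. Plants were 1- to 4-leaf seedlings (2 to 18 cm) in potting medium and received postemergence applications of formulated test chemicals.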

[15] = test system: waterhemp_RES2 (ALS & HPPD resistant common waterhemp, Amaranthus rudis); assay: Test E greenhouse herbicide test, postemergence
How it was run: as §2

[16] = 62 g ai/ha, Postemergence, scale 0 to 100 (0 no effect, 100 complete control)
[17] = 62 g ai/ha, Preemergence, scale 0 to 100 (0 no effect, 100 complete control)
[18] = 125 g ai/ha, Postemergence, scale 0 to 100 (0 no effect, 100 complete control)
[19] = 125 g ai/ha, Preemergence, scale 0 to 100 (0 no effect, 100 complete control)
[20] = Postemergence, 16 g ai/ha, visual, scale 0 no effect to 100 complete control
[21] = Postemergence, 31 g ai/ha, visual, scale 0 no effect to 100 complete control
[22] = Preemergence, 16 g ai/ha, scale 0 to 100, 0 no effect, 100 complete control
[23] = Preemergence, 31 g ai/ha, scale 0 to 100, 0 no effect, 100 complete control
[24] = 62 g ai/ha, scale 0 to 100 (0 no effect, 100 complete control)
[25] = 125 g ai/ha, scale 0 to 100 (0 no effect, 100 complete control)
[26] = 16 g ai/ha, scale 0 to 100, 0 no effect, 100 complete control
[27] = 31 g ai/ha, scale 0 to 100, 0 no effect, 100 complete control
[28] = 16 g ai/ha, visual, scale 0 no effect to 100 complete control
[29] = 31 g ai/ha, visual, scale 0 no effect to 100 complete control

Cc1ccc2sc(C)c(-c3c(OC(=O)OC(C)C)c(C)nn(C)c3=O)c2c1 [Compound 66]
90: Plant response rating, Ryegrass, Italian [1, 17] | Plant response rating, Beggarticks [3, 16] | Plant response rating, Horseweed [8, 24] | Plant response rating, Horseweed [8, 25] | Plant response rating, Kochia [9, 16] | Plant response rating, Kochia [9, 19] | Plant response rating, Kochia [9, 20] | Plant response rating, Ragweed [11, 17] | Plant response rating, Ragweed [11, 18]
80: Plant response rating, Beggarticks [3, 21] | Plant response rating, Horseweed [8, 29] | Plant response rating, Pigweed, Palmer [10, 18] | Plant response rating, Ragweed [11, 16] | Plant response rating, Ragweed [11, 21] | Plant response rating, Waterhemp_RES1 [14, 29] | Plant response rating, Waterhemp_RES1 [14, 25]
95: Plant response rating, Beggarticks [3, 17] | Plant response rating, Kochia [9, 18] | Plant response rating, Kochia [9, 21]
60: Plant response rating, Dayflower, VA [6, 16] | Plant response rating, Horseweed [8, 28] | Plant response rating, Kochia [9, 17] | Plant response rating, Pigweed, Palmer [10, 16] | Plant response rating, Sandbur [12, 18]
15: Plant response rating, Barnyardgrass [2, 19] | Plant response rating, Barnyardgrass [2, 21] | Plant response rating, Barnyardgrass [2, 23] | Plant response rating, Crabgrass, Large [5, 25]
5: Plant response rating, Goosegrass [7, 26] | Plant response rating, Goosegrass [7, 27]
70: Plant response rating, Beggarticks [3, 23] | Plant response rating, Pigweed, Palmer [10, 21] | Plant response rating, Sandbur [12, 19] | Plant response rating, Waterhemp_RES1 [14, 28]
20: Plant response rating, Ryegrass, Italian [1, 20] | Plant response rating, Barnyardgrass [2, 17] | Plant response rating, Barnyardgrass [2, 18] | Plant response rating, Barnyardgrass [2, 20] | Plant response rating, Crabgrass, Brazil [4, 21] | Plant response rating, Dayflower, VA [6, 19] | Plant response rating, Soybean [13, 16] | Plant response rating, Soybean [13, 18]
40: Plant response rating, Ryegrass, Italian [1, 16] | Plant response rating, Ryegrass, Italian [1, 22] | Plant response rating, Crabgrass, Brazil [4, 18] | Plant response rating, Sandbur [12, 21] | Plant response rating, Waterhemp_RES2 [15, 28] | Plant response rating, Waterhemp_RES2 [15, 29] | Plant response rating, Waterhemp_RES2 [15, 24]
0: Plant response rating, Barnyardgrass [2, 22] | Plant response rating, Crabgrass, Brazil [4, 22] | Plant response rating, Crabgrass, Large [5, 24] | Plant response rating, Crabgrass, Large [5, 26] | Plant response rating, Crabgrass, Large [5, 27] | Plant response rating, Dayflower, VA [6, 17] | Plant response rating, Dayflower, VA [6, 20] | Plant response rating, Dayflower, VA [6, 22] | Plant response rating, Dayflower, VA [6, 23] | Plant response rating, Kochia [9, 22] | Plant response rating, Kochia [9, 23] | Plant response rating, Pigweed, Palmer [10, 22] | Plant response rating, Pigweed, Palmer [10, 23] | Plant response rating, Sandbur [12, 22] | Plant response rating, Sandbur [12, 23] | Plant response rating, Soybean [13, 17] | Plant response rating, Soybean [13, 19] | Plant response rating, Soybean [13, 20] | Plant response rating, Soybean [13, 21] | Plant response rating, Soybean [13, 22] | Plant response rating, Soybean [13, 23]
30: Plant response rating, Ryegrass, Italian [1, 21] | Plant response rating, Crabgrass, Brazil [4, 16]
100: Plant response rating, Ryegrass, Italian [1, 19] | Plant response rating, Beggarticks [3, 18] | Plant response rating, Beggarticks [3, 19] | Plant response rating, Pigweed, Palmer [10, 19] | Plant response rating, Ragweed [11, 19]
65: Plant response rating, Ryegrass, Italian [1, 23] | Plant response rating, Beggarticks [3, 22] | Plant response rating, Crabgrass, Brazil [4, 19] | Plant response rating, Pigweed, Palmer [10, 17] | Plant response rating, Ragweed [11, 23]
50: Plant response rating, Ryegrass, Italian [1, 18] | Plant response rating, Dayflower, VA [6, 18] | Plant response rating, Pigweed, Palmer [10, 20] | Plant response rating, Sandbur [12, 16] | Plant response rating, Waterhemp_RES2 [15, 25]
25: Plant response rating, Barnyardgrass [2, 16] | Plant response rating, Crabgrass, Brazil [4, 17] | Plant response rating, Crabgrass, Brazil [4, 23] | Plant response rating, Dayflower, VA [6, 21] | Plant response rating, Ragweed [11, 22] | Plant response rating, Sandbur [12, 20]
75: Plant response rating, Beggarticks [3, 20] | Plant response rating, Ragweed [11, 20] | Plant response rating, Waterhemp_RES1 [14, 24]
10: Plant response rating, Crabgrass, Brazil [4, 20] | Plant response rating, Goosegrass [7, 24] | Plant response rating, Goosegrass [7, 25] | Plant response rating, Sandbur [12, 17]
